Data on one compound can be found in ChEMBL document CHEMBL1147078, “Triptolide is a traditional Chinese medicine-derived inhibitor of polycystic kidney disease” (Proc Natl Acad Sci U S A, 2007).

The species entered for data set [1] is Mus musculus. Kind of data set: Increase in PC2 dependent calcium release in mouse Pkd1+/- cells at 100 nM. It is filed as functional, cell-based.
The subject of the next data set is Pkd. Description: Increase in calcium response in mouse Pkd cells at […]. It is filed as functional, cell-based.
The species named for data set [2] is Mus musculus. Kind of data set: Increase in p21CIP/WAF expression in mouse Pkd1-/- cells at 100 nM after 96 hrs by Western blot analysis. The class given is functional, cell-based.
Data set [3] is filed under the species Mus musculus. Kind of data set: Induction of cell growth arrest in mouse Pkd1-/- cells in presence of calcium. It is filed as functional, cell-based.
For data set [4], the species on record is Mus musculus. Description: Increase in calcium release in mouse Pkd1-/- cells at 50 uM in presence of RyR antagonist dantrolene. It is filed as functional, cell-based.
Data set [5] in a line: Growth inhibition of PC2 reconstituted mouse Pkd2-/- cells assessed as cell death at 100 nM after 24 hrs. It is filed as functional. On the set-up: scale not given: the % may be the effect or the level left.
The subject of data set [6] is Mus musculus. Kind of data set: Effect on Pkd1+/- and Pkd1+/- inter crossed mouse assessed as decrease in kidney cyst burden in […] genotypic embryos at 0.07 mg/kg, ip from E10.5 stage to untill birth relative to control. On the set-up: dose 0.07 mg/kg. The class given is functional, organism-based.
Data set [7] concerns Mus musculus. Kind of data set: Toxicity in C57BL/6 mouse embryos at >=0.1 mg/kg/day, ip. The class given is organism-based. Conditions: in vivo.
The species entered for data set [8] is Mus musculus. Description: Increase in PC2 dependent calcium release in mouse Pkd1-/- cells at 100 nM. It is filed as functional, cell-based.
For data set [9], the species on record is Mus musculus. Kind of data set: Growth inhibition of PC2 expressing mouse Pkd2+/- cells as cell death at 100 nM after 24 hrs. The class given is functional.
Data set [10] in a line: Growth inhibition of mouse Pkd2-/- PC2-null cells assessed as cell viability at 100 nM after 24 hrs. The class given is functional. The settings on record: read-out: Activity.
The test system of data set [11] is Mus musculus. Kind of data set: Toxicity in C57BL/6 mouse embryos at […], ip. The settings on record: in vivo. It is filed as organism-based. On the set-up: route intraperitoneal.
A short description of data set [12]: Growth inhibition of mouse Pkd2-/- PC2-null cells assessed as cell death at 100 nM after 48 hrs. It is filed as functional. On the set-up: scale not given: the % may be the effect or the level left.
For data set [13], the species on record is Mus musculus. Kind of data set: Increase in calcium release in mouse Pkd2-/- cells at 100 nM. The class given is functional, cell-based.

The structures appear in SMILES notation. Active and inactive are the calls of the source. No cut-off for these calls is given here.

In the case of `CC(C)[C@]12O[C@H]1[C@@H]1O[C@]13[C@]1(O[C@H]1C[C@H]1C4=C(CC[C@@]13C)C(=O)OC4)[C@@H]2O` [TRIPTOLIDE], the outcome in the data set listed under Mus musculus [1], in the data set listed under Mus musculus [2], in the data set listed under Mus musculus [3], in the data set listed under Mus musculus [4], in the data set with Mus musculus [6] and in the data set filed under Mus musculus [8] was Active. Further, in the data set filed under Mus musculus [9], the outcome was Active. For the same compound, the outcome with Pkd and in the data set listed under Mus musculus [13] was inactive. Besides, the Activity is greater than 80% in data set [5], “Toxic” in the data set on Mus musculus [7], “Non-toxic” with Mus musculus [11] and greater than 50% in [12]. Also, the viability at 0.1 µM in data set [10] was greater than 90%.
